In ChEMBL document CHEMBL1140979, “Synthesis and antiamoebic activity of metronidazole thiosemicarbazone analogues” (Eur J Med Chem, 2008):

The compounds below were run on Entamoeba histolytica (assay: Antiamoebic activity against Entamoeba histolytica HM1:IMSS after 72 hrs by microdilution method).
Type: functional, organism-based

Row | Structure (SMILES) | IC50
1 | O=[N+]([O-])c1cnc(/C=C/c2ccc(/C=N/NC(=S)N3CCCC3)cc2)n1CCO | 1920 nM
2 | Cc1ccccc1NC(=S)N/N=C/c1ccc(/C=C/c2ncc([N+](=O)[O-])n2CCO)cc1 | 1570 nM
3 | CN(Cc1ccccc1)C(=S)N/N=C/c1ccc(/C=C/c2ncc([N+](=O)[O-])n2CCO)cc1 | 2340 nM
4 | O=[N+]([O-])c1cnc(/C=C/c2ccc(/C=N/NC(=S)NCc3ccccc3Cl)cc2)n1CCO | 3670 nM
5 | O=[N+]([O-])c1cnc(/C=C/c2ccc(/C=N/NC(=S)N3CCCCCC3)cc2)n1CCO | 1620 nM

Now those with a lower IC50, led by results:

Row | IC50 | Structure (SMILES)
6 | 1500 nM | O=[N+]([O-])c1cnc(/C=C/c2ccc(/C=N/NC(=S)NC3CCCCC3)cc2)n1CCO
7 | 1250 nM | O=[N+]([O-])c1cnc(/C=C/c2ccc(/C=N/NC(=S)N3CCC(c4ccccc4)CC3)cc2)n1CCO
8 | 1180 nM | O=[N+]([O-])c1cnc(/C=C/c2ccc(/C=N/NC(=S)N3CCCc4ccccc43)cc2)n1CCO
9 | 1130 nM | CC1CCN(C(=S)N/N=C/c2ccc(/C=C/c3ncc([N+](=O)[O-])n3CCO)cc2)CC1
10 | 800 nM | O=[N+]([O-])c1cnc(/C=C/c2ccc(/C=N/NC(=S)NC3CCCCCCC3)cc2)n1CCO
11 | 560 nM | Cc1ccc(NC(=S)N/N=C/c2ccc(/C=C/c3ncc([N+](=O)[O-])n3CCO)cc2)cc1
